Publication PMC5641551, “Chemical Proteomics for Target Discovery of Head-to-Tail Cyclized Mini-Proteins” (Frontiers in Chemistry, 2017)
No end group written: not given here.

Legend:
[1] = tested on: 14-3-3 proteins in living Jurkat cells; experiment: photo-affinity pull down on living Jurkat cells with competitor; assay type: binding, human; conditions: 2 h incubation with bait, [T20K]kB1 competitor at 60-fold molar excess, UV irradiation
Experimental: Biotin-LC-LC-labeled (ThermoFisher) peptides (1–5 nmoles) with or without (non-biotinylated) competitor ([…]) for 2 h at 4°C in the presence of protease inhibitors. UV-activation of photo-crosslinking moiety benzophenone was induced by irradiation at 360 nm on ice for 15 min (Stratalinker, Stratagene, CA, United States). Streptavidin-coated magnetic nanobeads 2–4 mg (1–3-fold excess of binding capacity to applied biotin-bait) facilitated the precipitation (Hyglos, Bernried, Germany). The binding could proceed overnight at 4°C. The supernatants were removed and the beads were washed several times, unless stated otherwise and used for SDS-PAGE, unless stated otherwise. For cyclotide experiments the following peptides were used: biotinylated [T20K]kB1 or [T20K,W23Bpa]kB1 as bait and [T20K]kB1, [T20K,W23Bpa]kB1, or R18 ([…]; Sigma Aldrich), a 14-3-3 family specific peptide inhibitor, as competitors. Generally, beads were washed with lysis buffer containing 1% (v/v) Triton-X100 and 0.2% SDS (w/v) and protease inhibitor cocktail for 3 h followed by wash with 0.12 mM phosphate buffered high saline (PBhS) pH 7.4, 1 M NaCl and 12 mM KCl, 1 mM EDTA for 2 h. Lastly, the beads were washed three times for 5 min with lysis buffer. […] Peptide-protein co-precipitations of 14-3-3 proteins and cyclotides were analyzed with GST-tagged 14-3-3β protein (0.25 μg; EnzoLifeSciences, New York, United States). […]

IL-2 in T-lymphocytes = conditions: reference not given; cited from earlier work
Text: 14-3-3s are ubiquitous adaptor proteins that are involved in cell signaling, cell cycle progression and apoptosis as well as protein-protein interaction and cellular transport (Aghazadeh and Papadopoulos, [2016]). The 14-3-3 family is often described as a chimera, since knockout of single isoforms may remain without or with minor phenotypic changes due to functional rescue through the recruitment of other family members. […] Many tumor suppressors or oncogenes are regulated by 14-3- ...

## CGETCVGGTCNTPGCKCSWPVCTRNGLPV (also: bicyclic or more (positions not given here)) [[T20K]kB1, synthetic cyclotide drug candidate, Thr20 to Lys mutant of kalata B1]
[1]
  retention of labeled 14-3-3 proteins on affinity beads in presence of competitor: competitively reduced
IL-2 in T-lymphocytes
  regulatory cytokines such as IL-2 in T-lymphocytes of treated animals: significantly downregulated
